Laboratory results published in article PMC5500991, “Substituted arylsulphonamides as inhibitors of perforin-mediated lysis” (European Journal of Medicinal Chemistry, 2017).
Read-outs that look alike come from different tables or passages of the source.

Legend:
[1] = molecular target: T1, perforin delivered by KHYG1 NK cells (Homo sapiens, UniProt P14222); experiment: KHYG1 inhibitory assay: lysis of 51Cr-labelled K562 target cells by KHYG1 NK cells; type: cell-based; details: 51Cr-labelled K562 target cells co-incubated with KHYG1 human NK cells, vs untreated control; for inhibition at 10 µM: n = 4; for KHYG1 Inhibition (% at 10 μM): n = 4, 10 µM
T1 construct: The use of whole NK cells to deliver perforin provides a more realistic model of conditions in vivo; endogenous in cells; host or cells: KHYG1 human NK cells (effector); K562 leukemia target cells
T1 sequence (P14222 22-555): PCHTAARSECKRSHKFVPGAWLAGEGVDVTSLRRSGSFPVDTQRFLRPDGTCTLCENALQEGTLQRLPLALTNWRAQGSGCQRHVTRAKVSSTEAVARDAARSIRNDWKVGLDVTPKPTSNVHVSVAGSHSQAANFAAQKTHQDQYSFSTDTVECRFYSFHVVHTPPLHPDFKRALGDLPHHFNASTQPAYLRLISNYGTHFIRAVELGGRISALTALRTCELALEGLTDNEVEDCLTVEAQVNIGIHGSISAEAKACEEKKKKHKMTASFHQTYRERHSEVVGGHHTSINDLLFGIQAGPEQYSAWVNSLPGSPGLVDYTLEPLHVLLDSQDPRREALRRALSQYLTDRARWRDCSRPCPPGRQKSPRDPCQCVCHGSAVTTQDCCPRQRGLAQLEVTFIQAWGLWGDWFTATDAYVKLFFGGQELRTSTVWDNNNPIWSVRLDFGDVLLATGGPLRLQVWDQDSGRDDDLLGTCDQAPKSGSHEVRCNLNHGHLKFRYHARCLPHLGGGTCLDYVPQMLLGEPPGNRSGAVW
Method: The inhibitory function is then determined by identifying the number of untreated or inhibitor treated effector cells required to kill the same number of targets.

[2] = Toxicity to KHYG1 NK cells (Trypan blue exclusion); type: cell-based, human; details: human, viability of KHYG1 NK cells after 24 h, n = 3
Method: (§1) The toxicity assay was carried out in exactly the same manner as the killing assay above, but instead of adding the labelled K562 target cells, 100 μL of RPMI 0.1% BSA was added. Cells were incubated for 4 h at 37 °C and then washed ×3 in RPMI + 0.1% BSA. […] Trypan blue was added to each well. Viable (clear) cells and total (clear + blue) cells were counted, and the percentage of viable cells was calculated compared to DMSO treated cell control (% viability).

[3] = In vivo plasma pharmacokinetics in mice; details: mouse plasma, 10 mg/kg i.p. in 20% hydroxypropyl-β-cyclodextrin
Method: The in vivo PK parameters were measured for seven compounds selected on the basis of the in vitro assessment described above. Plasma pharmacokinetics were determined in male CD-1 mice for compounds 3, 10, 11, 26, 50, 58 and 59 (Table 6). Blood samples were collected at 5–8 time-points after dosing the compounds at 10 mg/kg in a solution of 20% hydroxypropyl-β-cyclodextrin by intraperitoneal (IP) injection. For analysis of the samples, chromatographic conditions were optimised by HPLC for each compound of interest and an internal standard. A liquid chromatography with tandem mass spectrometry (LC-MS/MS) method was then developed and validated for quantitation of each analyte.
PK studies were carried out in female C57BL/6J (female) mice using IP administration of test compound, dosing at 10 mg/kg in a solution of 20% hydroxypropyl-β-cyclodextrin. Mice (n=3 at each time point) were culled with excess inhalation of CO2 and blood collected by cardiac puncture at 5-8 time points after dosing in ice cold EDTA tubes. Plasma was separated by centrifuging at 6000 rpm for 5 min and stored at -80°C until analysis by LC-MS/MS. Frozen plasma was thawed on wet ice on the day of analysis. Ten μL of sample was transferred to a clean microcentrifuge tube and mixed with ice cold acetonitrile (40 μL containing internal standard) to precipitate the plasma proteins. The tubes were centrifuged at 13000 rpm for 5 min to obtain a clear supernatant which was mixed with 0.01% formic acid-water (1:2). Ten to twenty µL was injected into the LC-MS/MS to measure the analyte concentration in the sample. The samples were quantitated against a calibration curve of known analyte concentrations run in test species blank plasma (sourced from Innovative Research, USA). The concentration vs time data was then fitted into a pharmacokinetic software program (Phoenix WinNonlin v6.2) to calculate the PK parameters including T½, Cmax and AUC0-∞.

[4] = design: method as in PMID 28110869; details: sodium salt in water at room temperature; cited from earlier work
[5] = design: method as in PMID 28110869; details: sodium salt, 24 h at 20 °C in water; cited from earlier work
[6] = design: method as in PMID 28110869; details: parent remaining after 30 min, rat microsomes; cited from earlier work
[7] = Solubility of the sodium salt in water; type: physicochemical; details: sodium salt in water at room temperature
Method: The compound was dissolved in water until it was no longer soluble in order to achieve a supersaturated concentration. The suspensions were sonicated for 15 min. prior to centrifugation at 13,000 revolutions per minute (rpm) for 6 minutes. Supernatants were removed and then recentrifuged prior to dilution of at least two fold in water to avoid precipitation during HPLC analysis.

[8] = Stability in solution (water, 20 °C, 24 h); type: physicochemical; details: sodium salt, 24 h at 20 °C in water
Method: Test compounds were incubated (10 μM; < 2.5% DMSO in final concentration) in Milli Q water (n=3 tubes) at 20 °C for 24 h. (Eppendorf Thermomixer Comfort). Aliquots were collected (25 μL) just before the incubation (time “0 min”) and at 24 h. These samples were stored in a -80 °C freezer until the analysis by liquid chromatography with tandem mass spectrometry spectrometry (LC-MS/MS) – see next section for method development. Samples were thawed on wet ice on the day of assay. Thawed aliquots were mixed by vortex mixer, 10 μL of the sample transferred to a clean tube, 40 μL of ice cold acetonitrile added (containing internal standard compound), then centrifuged at 13,000 rpm for 5 min, 40 μL of clear supernatant transferred to an HPLC insert and mixed with 80 μL of 0.01% formic acid in water. Ten to 20 μL was injected onto the LC-MS/MS system. Results are based on the peak area ratio of drug to internal standard at time “0 h” (i.e. before the incubation and at the end i.e. “24 h”).

[9] = Microsome stability, mouse; type: in vitro ADME; details: parent (as sodium salt) remaining after 30 min, mouse microsomes
Method: (§2) Microsome stability was carried out at Cyprotex using pooled human liver microsomes (male and female), pooled rat liver microsomes (male, Sprague Dawley rats), pooled mouse liver microsomes (male CD-1 mice) which were either prepared or purchased from a reputable commercial supplier. […] The final incubation volume was 25 μL. A control incubation was included for each compound tested where 0.1 M phosphate buffer pH 7.4 was added instead of NADPH (minus NADPH). Two control compounds were included with each species. All incubations were performed singularly for each test compound. Each compound was incubated for 0, 5, 15, 30 and 45 min. The control (minus NADPH) was incubated for 45 min only. The reactions were stopped by the addition of 50 μL methanol containing internal standard at the appropriate time points. The incubation plates were centrifuged at 2,500 rpm for 20 min at 4 °C to precipitate the protein. Following precipitation, the sample supernatants were combined in cassettes of up to 4 compounds and analysed using Cyprotex generic LC-MS/MS conditions. From a plot of ln peak area ratio (compound peak area/internal standard peak area) against time, the percentage compound remaining at 30 min was calculated. Results that were > 100% of matched control were defined as 100%.

Microsome stability, rat = type: in vitro ADME; details: parent (as sodium salt) remaining after 30 min, rat microsomes
Method: as §2

[10] = Microsome stability, human; type: in vitro ADME; details: parent (as sodium salt) remaining after 30 min, human microsomes
Method: as §2

KHYG1 NK cells = experiment: Toxicity to KHYG1 NK cells (Trypan blue exclusion); type: cell-based, human; details: viability of KHYG1 NK cells after 24 h, n = 3
Method: as §1

| Compound | inhibition at 10 µM [1] | AUC0-∞ [3] | Cmax [3] | T1/2 [3] | KHYG1 Inhibition (% at 10 μM) [1] | solubility at 15 min [7] | Stability in Solution (% parent remaining) [8] | Microsome Stability (%) Mouse [9] | Microsome Stability (%) Rat (Microsome stability, rat) | Microsome Stability (%) Human [10] | Solubility [7] | melting point | viability at 24 h, 10 µM [2] | Solubility [4] | Stability in Solution (% parent remaining) [5] | Microsome Stability (%) Rat [6] | KHYG1 Viability (% at 10 μM) (KHYG1 NK cells) |
| --- | --- | --- | --- | --- | --- | --- | --- | --- | --- | --- | --- | --- | --- | --- | --- | --- | --- |
| CN1Cc2cc(-c3ccc(-c4cncc(NS(=O)(=O)c5ccc(F)cc5F)c4)s3)ccc2C1=O [Compound 3] | 67.5 ± 17.5% | 220 µM·h | 10 µM | 12.0 h | – | – | – | – | – | – | – | – | 100% | 1080 µg/mL | 82% | 99% | – |
| CN1Cc2cc(-c3ccc(-c4cncc(NS(=O)(=O)c5ccccc5[N+](=O)[O-])c4)s3)ccc2C1=O [Compound 58, N-(5-(5-(2-Methyl-1-oxoisoindolin-5-yl)thiophen-2-yl)pyridin-3-yl)-2-nitrobenzenesulfonamide] | 96% | 415 µM·h | 105 µM | 2.5 h | 95.6 ± 1.9% | 671 µg/mL | 100% | 100% | 89% | 73% | – | – | 98.7 ± 1.5% | – | – | – | – |
| CN1Cc2cc(-c3ccc(-c4cncc(NS(=O)(=O)c5ccc(C(=O)O)cc5)c4)s3)ccc2C1=O [Compound 55, 4-(N-(5-(5-(2-Methyl-1-oxoisoindolin-5-yl)thiophen-2-yl)pyridin-3-yl)sulfamoyl)benzoic acid] | – | – | – | – | – | – | – | – | – | – | – | > 310 °C | – | – | – | – | toxic to the NK cells |

Second part, led by results:

| inhibition at 10 µM [1] | AUC0-∞ [3] | Cmax [3] | T1/2 [3] | KHYG1 Inhibition (% at 10 μM) [1] | solubility at 15 min [7] | Stability in Solution (% parent remaining) [8] | Microsome Stability (%) Mouse [9] | Microsome Stability (%) Rat (Microsome stability, rat) | Microsome Stability (%) Human [10] | Solubility [7] | melting point | Compound | viability at 24 h, 10 µM [2] | Solubility [4] | Stability in Solution (% parent remaining) [5] | Microsome Stability (%) Rat [6] | KHYG1 Viability (% at 10 μM) (KHYG1 NK cells) |
| --- | --- | --- | --- | --- | --- | --- | --- | --- | --- | --- | --- | --- | --- | --- | --- | --- | --- |
| 95 ± 2.5% | 2364 µM·h | 149 µM | 9.5 h | – | 4030 µg/mL | 100% | 97% | 99% | 95% | – | – | CN1Cc2cc(-c3ccc(-c4cnc(Cl)c(NS(=O)(=O)c5ccc(F)cc5F)c4)s3)ccc2C1=O [Compound 11, 2,4-Difluoro-N-(2-chloro-5-(5-(2-methyl-1-oxoisoindolin-5-yl)thiophen-2-yl)pyridin-3-yl)benzenesulphonamide] | 94 ± 5.3% | – | – | – | – |
| 93% | 2885 µM·h | 236 µM | 6.6 h | 92.5 ± 1.8% | 428 µg/mL | 100% | 96% | 100% | 94% | negative impact on solubility | – | CN1Cc2cc(-c3ccc(-c4cnc(F)c(NS(=O)(=O)c5ccc(F)cc5F)c4)s3)ccc2C1=O [Compound 10, 2,4-Difluoro-N-(2-fluoro-5-(5-(2-methyl-1-oxoisoindolin-5-yl)thiophen-2-yl)pyridin-3-yl)benzenesulphonamide] | 92 ± 3% | – | – | – | – |
